How the values were obtained:
Test in all cases: Competitive isoTOP-ABPP in situ (fragment-treated cells)
Type in all cases: cell-based
[1] = target: T1, cysteines in MDA-MB-231 and Ramos cells (Homo sapiens, UniProt Q96AB3); details: 200 μM, insitu, 231
T1 sequence (Q96AB3 1-205): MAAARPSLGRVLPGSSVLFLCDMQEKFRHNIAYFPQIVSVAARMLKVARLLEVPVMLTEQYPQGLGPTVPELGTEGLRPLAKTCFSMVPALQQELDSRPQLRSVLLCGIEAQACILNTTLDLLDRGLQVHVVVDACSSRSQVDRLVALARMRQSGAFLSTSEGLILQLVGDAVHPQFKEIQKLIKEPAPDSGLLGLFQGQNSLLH

[2] = target: cysteines in MDA-MB-231 and Ramos cells (Homo sapiens, UniProt P04406); details: 200 μM, insitu
[3] = target: cysteines in MDA-MB-231 and Ramos cells (Homo sapiens, UniProt Q16831); details: 200 μM, insitu, 231
[4] = target: T2, cysteines in MDA-MB-231 and Ramos cells (Homo sapiens, UniProt P42166); details: 200 μM, insitu
T2 sequence (P42166 1-694): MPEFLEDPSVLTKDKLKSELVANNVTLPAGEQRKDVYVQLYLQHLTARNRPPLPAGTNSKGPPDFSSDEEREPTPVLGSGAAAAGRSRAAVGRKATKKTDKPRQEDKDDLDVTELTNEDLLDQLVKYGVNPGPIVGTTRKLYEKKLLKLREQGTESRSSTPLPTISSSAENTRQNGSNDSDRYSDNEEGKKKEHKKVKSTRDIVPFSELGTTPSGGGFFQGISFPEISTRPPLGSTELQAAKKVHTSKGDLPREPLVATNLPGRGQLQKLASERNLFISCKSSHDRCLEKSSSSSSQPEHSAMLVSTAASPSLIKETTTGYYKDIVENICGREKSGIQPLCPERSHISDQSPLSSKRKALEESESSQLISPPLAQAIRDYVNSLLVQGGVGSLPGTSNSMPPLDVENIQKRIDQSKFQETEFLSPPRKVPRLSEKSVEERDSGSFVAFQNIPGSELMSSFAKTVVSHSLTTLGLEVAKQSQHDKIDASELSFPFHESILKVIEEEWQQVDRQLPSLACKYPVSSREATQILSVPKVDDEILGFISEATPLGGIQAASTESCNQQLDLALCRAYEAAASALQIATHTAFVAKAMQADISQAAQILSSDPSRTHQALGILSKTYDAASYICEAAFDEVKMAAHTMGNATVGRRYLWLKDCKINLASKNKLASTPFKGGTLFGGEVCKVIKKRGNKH

[5] = target: T3, cysteines in MDA-MB-231 and Ramos cells (Homo sapiens, UniProt Q99439); details: 200 μM, insitu
T3 sequence (Q99439 1-309): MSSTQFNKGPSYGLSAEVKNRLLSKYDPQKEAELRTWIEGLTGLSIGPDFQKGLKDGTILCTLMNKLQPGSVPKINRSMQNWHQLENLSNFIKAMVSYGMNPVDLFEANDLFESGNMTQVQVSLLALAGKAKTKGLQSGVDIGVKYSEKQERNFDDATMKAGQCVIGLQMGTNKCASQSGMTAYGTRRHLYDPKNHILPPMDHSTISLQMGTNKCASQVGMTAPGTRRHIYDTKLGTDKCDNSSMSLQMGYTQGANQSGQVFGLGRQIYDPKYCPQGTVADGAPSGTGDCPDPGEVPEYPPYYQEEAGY

[6] = target: cysteines in MDA-MB-231 and Ramos cells (Homo sapiens, UniProt Q9Y696); details: 200 μM, insitu
[7] = target: T4, cysteines in MDA-MB-231 and Ramos cells (Homo sapiens, UniProt O95336); details: 200 μM, insitu
T4 sequence (O95336 1-258): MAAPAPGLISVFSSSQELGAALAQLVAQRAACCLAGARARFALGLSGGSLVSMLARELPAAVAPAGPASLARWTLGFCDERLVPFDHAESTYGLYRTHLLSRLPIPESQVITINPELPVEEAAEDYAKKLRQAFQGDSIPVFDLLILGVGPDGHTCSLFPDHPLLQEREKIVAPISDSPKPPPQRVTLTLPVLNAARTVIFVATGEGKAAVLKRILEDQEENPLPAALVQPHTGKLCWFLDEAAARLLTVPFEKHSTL

[8] = target: T5, cysteines in MDA-MB-231 and Ramos cells (Homo sapiens, UniProt Q9BVC5); details: 200 μM, insitu, 231
T5 sequence (Q9BVC5 1-232): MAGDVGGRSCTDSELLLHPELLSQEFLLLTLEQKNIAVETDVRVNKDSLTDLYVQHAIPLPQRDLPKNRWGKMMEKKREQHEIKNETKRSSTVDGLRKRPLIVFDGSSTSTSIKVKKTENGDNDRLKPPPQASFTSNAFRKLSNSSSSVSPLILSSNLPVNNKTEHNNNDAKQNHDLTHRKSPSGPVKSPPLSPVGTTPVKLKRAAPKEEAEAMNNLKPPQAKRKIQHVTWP

[9] = target: T6, cysteines in MDA-MB-231 and Ramos cells (Homo sapiens, UniProt Q9NVC6); details: 200 μM, insitu
T6 sequence (Q9NVC6 1-651): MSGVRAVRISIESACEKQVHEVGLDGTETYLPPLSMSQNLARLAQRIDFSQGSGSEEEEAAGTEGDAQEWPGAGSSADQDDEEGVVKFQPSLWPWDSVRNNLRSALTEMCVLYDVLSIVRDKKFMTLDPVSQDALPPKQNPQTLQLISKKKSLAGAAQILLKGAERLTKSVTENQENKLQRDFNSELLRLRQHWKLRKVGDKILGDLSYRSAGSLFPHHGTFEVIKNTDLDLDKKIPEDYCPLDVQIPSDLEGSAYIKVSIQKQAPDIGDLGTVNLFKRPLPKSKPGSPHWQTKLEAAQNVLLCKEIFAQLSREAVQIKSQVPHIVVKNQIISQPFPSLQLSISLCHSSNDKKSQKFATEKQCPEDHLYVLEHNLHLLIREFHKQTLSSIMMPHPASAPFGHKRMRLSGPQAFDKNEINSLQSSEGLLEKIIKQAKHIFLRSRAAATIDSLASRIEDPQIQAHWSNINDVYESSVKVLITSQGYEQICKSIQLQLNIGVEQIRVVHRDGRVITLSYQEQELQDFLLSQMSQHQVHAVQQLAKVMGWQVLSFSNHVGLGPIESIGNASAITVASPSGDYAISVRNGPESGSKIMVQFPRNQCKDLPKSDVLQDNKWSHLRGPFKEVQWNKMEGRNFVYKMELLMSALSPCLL

Sequence of cysteines in MDA-MB-231 and Ramos cells (Homo sapiens, UniProt Q9Y696) (Q9Y696 whole entry): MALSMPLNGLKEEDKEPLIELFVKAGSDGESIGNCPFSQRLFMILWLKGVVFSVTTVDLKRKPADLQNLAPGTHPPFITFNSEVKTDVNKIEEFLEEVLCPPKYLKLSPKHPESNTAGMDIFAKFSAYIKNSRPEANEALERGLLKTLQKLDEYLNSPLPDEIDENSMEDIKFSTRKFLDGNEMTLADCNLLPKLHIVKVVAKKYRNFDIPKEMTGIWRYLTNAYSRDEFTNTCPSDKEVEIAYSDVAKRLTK
Sequence of cysteines in MDA-MB-231 and Ramos cells (Homo sapiens, UniProt Q16831) (Q16831 whole entry): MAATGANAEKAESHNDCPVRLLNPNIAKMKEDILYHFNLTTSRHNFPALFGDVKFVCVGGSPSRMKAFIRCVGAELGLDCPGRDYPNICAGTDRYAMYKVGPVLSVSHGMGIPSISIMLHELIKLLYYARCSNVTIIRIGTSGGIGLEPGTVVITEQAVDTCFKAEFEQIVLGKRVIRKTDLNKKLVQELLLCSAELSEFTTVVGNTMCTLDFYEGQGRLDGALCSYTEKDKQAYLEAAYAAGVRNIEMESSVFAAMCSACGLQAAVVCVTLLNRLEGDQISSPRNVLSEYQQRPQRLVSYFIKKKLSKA
Sequence of cysteines in MDA-MB-231 and Ramos cells (Homo sapiens, UniProt P04406) (P04406 whole entry): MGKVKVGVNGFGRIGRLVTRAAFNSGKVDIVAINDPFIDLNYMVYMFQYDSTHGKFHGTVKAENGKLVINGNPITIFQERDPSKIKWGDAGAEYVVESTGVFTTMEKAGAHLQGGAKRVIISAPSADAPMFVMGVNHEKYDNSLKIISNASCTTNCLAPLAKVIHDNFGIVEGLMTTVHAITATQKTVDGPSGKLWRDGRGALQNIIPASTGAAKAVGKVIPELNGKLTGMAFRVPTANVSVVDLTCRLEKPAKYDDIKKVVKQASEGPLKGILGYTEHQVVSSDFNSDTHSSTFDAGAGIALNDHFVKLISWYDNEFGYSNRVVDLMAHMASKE

isoTOP-ABPP ratio Q96AB3_C114 [1]	isoTOP-ABPP ratio P04406_C152 [2]; 231	isoTOP-ABPP ratio Q16831_C162 [3]	isoTOP-ABPP ratio P42166_C561 [4]; 231	isoTOP-ABPP ratio Q99439_C164 [5]; 231	isoTOP-ABPP ratio Q9Y696_C35 [6]; 231	isoTOP-ABPP ratio O95336_C32 [7]; 231	isoTOP-ABPP ratio Q9BVC5_C10 [8]	isoTOP-ABPP ratio Q9NVC6_C649 [9]; 231	isoTOP-ABPP ratio P42166_C341 [4]; 231	isoTOP-ABPP ratio, cysteine P42166_C629 [4]; 231	SMILES	other results
1.6	0.9	0.9	16.1	0.9	20.0	20.0	2.9	4.0	–	–	O=C(CCl)NC(=O)NC12CC3CC(CC(C3)C1)C2 [compound 12]	–
2.4	0.9	1.0	1.2	0.9	2.3	1.6	1.6	1.1	1.3	1.0	O=C(CCl)NCCc1c[nH]c2ccccc12 [compound 13]	isoTOP-ABPP ratio P04406_C152 ([2]; ramos): 0.9; isoTOP-ABPP ratio, cysteine P42166_C684 [4]; 231: 1.2; isoTOP-ABPP ratio P42166_C341 ([4]; ramos): 1.4; isoTOP-ABPP ratio P42166_C561 ([4]; ramos): 1.0; isoTOP-ABPP ratio Q99439_C164 ([5]; ramos): 1.3; isoTOP-ABPP ratio Q9Y696_C35 ([6]; ramos): 3.2; isoTOP-ABPP ratio O95336_C32 ([7]; ramos): 2.2; isoTOP-ABPP ratio Q9NVC6_C649 ([9]; ramos): 1.0
4.9	1.3	1.6	1.4	0.9	1.1	0.9	1.5	0.8	1.7	1.6	O=C(CCl)NC12CC3CC(CC(C3)C1)C2 [compound 21]	isoTOP-ABPP ratio, cysteine P42166_C518 [4]; 231: 1.4
1.2	0.9	1.4	20.0	1.5	1.0	2.8	0.9	1.2	–	–	C=CC(=O)Nc1cc(F)c(N2CCN(C(=O)OC(C)(C)C)CC2)c(F)c1 [compound 38]	isoTOP-ABPP ratio P42166_C518 [4]; 231: 2.2; isoTOP-ABPP ratio P42166_C684 [4]; 231: 3.0
0.7	0.6	0.8	0.7	0.4	0.6	0.6	1.0	0.8	0.5	–	Cc1ccc(C=C(C#N)C(=O)NCCN2CCOCC2)cc1 [compound 41]	–
